Tests used:
[1] = Crystal form stability study (influencing factor experiments); type: physicochemical; details: for Physical and chemical properties (conclusion of influencing factor experiments): high temperatures and high humidities for 30 days
Experimental: Samples of the crystal forms A, B, C, I, J, and K of the compound represented by formula (I) were taken, spread in open containers, and left to stand under conditions of light exposure (4500 Lux), high temperatures (40° C. and 60° C.), and high humidities (RH 75% and RH 92.5%) for 30 days to investigate their stability, and the results are shown in Table 16.

[2] = Long-term/accelerated stability; type: physicochemical
[3] = 40° C., 10 days, open container
[4] = 40° C., 30 days, open container
[5] = 60° C., 10 days, open container
[6] = 60° C., 30 days, open container
[7] = 75% RH, 10 days, open container
[8] = 75% RH, 30 days, open container
[9] = 92.5% RH, 5 days, open container
[10] = 92.5% RH, 10 days, open container
[11] = 92.5% RH, 30 days, open container
[12] = light exposure (4500 Lux), 5 days, open container
[13] = light exposure (4500 Lux), 10 days, open container
[14] = light exposure (4500 Lux), 30 days, open container

CCc1c(F)ccc2cc(O)cc(-c3nc4c5c(nc(OC[C@@]67CCCN6C[C@H](F)C7)nc5c3F)N3C[C@H]5CC[C@H](N5)[C@H]3CO4)c12 [Crystal form I, 5-Ethyl-6-fluoro-4-((5aS,6S,9R)-1-fluoro-12-(((2R,7aS)-2-fluorotetrahydro-1H-pyrrolizin-7a(5H)-yl)methoxy)-5a,6,7,8,9,10-hexahydro-5H-4-oxa-3,10a,11,13,14-pentaaza-6,9-methanonaphtho[1,8-ab]heptalen-2-yl)naphthalen-2-ol]
99.6%: Purity % ([1]; 40° C., 5 days, open container) | Purity % ([1]; 60° C., 5 days, open container) | Purity % ([1]; 75% RH, 5 days, open container) | Purity % [1, 7] | Purity % [1, 8] | Purity % [1, 11] | Purity % ([1]; Initial, 0 days) | Purity % [1, 12] | Purity % 1 month ([2]; 25° C./60% RH) | Purity % 2 months ([2]; 25° C./60% RH) | Purity % 3 months ([2]; 25° C./60% RH) | Purity % Initial ([2]; 25° C./60% RH) | Purity % 1 month ([2]; 40° C./75% RH) | Purity % 3 months ([2]; 40° C./75% RH) | Purity % Initial ([2]; 40° C./75% RH)
Did not change: Crystal form ([1]; 40° C., 5 days, open container) | Crystal form [1, 3] | Crystal form [1, 4] | Crystal form ([1]; 60° C., 5 days, open container) | Crystal form [1, 5] | Crystal form [1, 6] | Crystal form ([1]; 75% RH, 5 days, open container) | Crystal form [1, 7] | Crystal form [1, 8] | Crystal form [1, 9] | Crystal form [1, 10] | Crystal form [1, 11] | Crystal form [1, 12] | Crystal form [1, 13] | Crystal form [1, 14]
99.2%: Purity % [1, 14]
99.4%: Purity % [1, 3] | Purity % [1, 5] | Purity % 2 months ([2]; 40° C./75% RH)
Crystal form I: Crystal form ([1]; Initial, 0 days)
99.5%: Purity % [1, 9] | Purity % [1, 10] | Purity % [1, 13]
good physical and chemical properties: Physical and chemical properties (conclusion of influencing factor experiments) [1]
99.3%: Purity % [1, 4] | Purity % [1, 6]
Off-white solid: Color and state ([1]; 40° C., 5 days, open container) | Color and state [1, 3] | Color and state [1, 4] | Color and state ([1]; 60° C., 5 days, open container) | Color and state [1, 5] | Color and state [1, 6] | Color and state ([1]; 75% RH, 5 days, open container) | Color and state [1, 7] | Color and state [1, 8] | Color and state [1, 9] | Color and state [1, 10] | Color and state [1, 11] | Color and state ([1]; Initial, 0 days) | Color and state [1, 12] | Color and state [1, 13] | Color and state [1, 14]

CCc1c(F)ccc2cc(O)cc(-c3nc4c5c(nc(OC[C@@]67CCCN6C[C@H](F)C7)nc5c3F)N3C[C@H]5CC[C@H](N5)[C@H]3CO4)c12 [Crystal form J, 5-Ethyl-6-fluoro-4-((5aS,6S,9R)-1-fluoro-12-(((2R,7aS)-2-fluorotetrahydro-1H-pyrrolizin-7a(5H)-yl)methoxy)-5a,6,7,8,9,10-hexahydro-5H-4-oxa-3,10a,11,13,14-pentaaza-6,9-methanonaphtho[1,8-ab]heptalen-2-yl)naphthalen-2-ol]
good physical and chemical properties: Physical and chemical properties (conclusion of influencing factor experiments) [1]
Crystal form J: Crystal form ([1]; Initial, 0 days)
Did not change: Crystal form ([1]; 40° C., 5 days, open container) | Crystal form [1, 3] | Crystal form [1, 4] | Crystal form ([1]; 60° C., 5 days, open container) | Crystal form [1, 5] | Crystal form [1, 6] | Crystal form ([1]; 75% RH, 5 days, open container) | Crystal form [1, 7] | Crystal form [1, 8] | Crystal form [1, 9] | Crystal form [1, 10] | Crystal form [1, 11] | Crystal form [1, 12] | Crystal form [1, 13] | Crystal form [1, 14]
93.0%: Purity % [1, 14]
99.3%: Purity % 2 months ([2]; 40° C./75% RH)
95.5%: Purity % [1, 13]
97.4%: Purity % [1, 6]
99.6%: Purity % ([1]; 75% RH, 5 days, open container) | Purity % [1, 7] | Purity % [1, 9] | Purity % ([1]; Initial, 0 days) | Purity % 2 months ([2]; 25° C./60% RH) | Purity % 3 months ([2]; 25° C./60% RH) | Purity % Initial ([2]; 25° C./60% RH) | Purity % Initial ([2]; 40° C./75% RH)
99.1%: Purity % ([1]; 60° C., 5 days, open container)
Pale yellow solid: Color and state [1, 13] | Color and state [1, 14]
99.4%: Purity % 1 month ([2]; 40° C./75% RH)
98.5%: Purity % [1, 5]
Off-white solid: Color and state ([1]; 40° C., 5 days, open container) | Color and state [1, 3] | Color and state [1, 4] | Color and state ([1]; 60° C., 5 days, open container) | Color and state [1, 5] | Color and state [1, 6] | Color and state ([1]; 75% RH, 5 days, open container) | Color and state [1, 7] | Color and state [1, 8] | Color and state [1, 9] | Color and state [1, 10] | Color and state [1, 11] | Color and state ([1]; Initial, 0 days) | Color and state [1, 12]
98.1%: Purity % [1, 12]
98.8%: Purity % [1, 3]
99.5%: Purity % [1, 8] | Purity % [1, 10] | Purity % [1, 11] | Purity % 1 month ([2]; 25° C./60% RH)
97.9%: Purity % [1, 4]
99.2%: Purity % ([1]; 40° C., 5 days, open container) | Purity % 3 months ([2]; 40° C./75% RH)

Reference: patent US20260209250A1, “CRYSTAL FORM OF KRAS G12D INHIBITOR AND PREPARATION METHOD THEREFOR” (priority 2022, published 2026)
